In ChEMBL document CHEMBL5303573, “Mapping human microbiome drug metabolism by gut bacteria and their genes” (Nature, 2019):

What was measured:
[1] = bacteroides fragilis, 12 h, 2 µM
Description: The drug is tested on Bacteroides fragilis strain: 3397 (T10) for biotransformation. The drug concentrations were measured before and after a 12-h incubation by liquid-chromatography-coupled mass spectrometry (LC–MS)

[2] = parabacteroides distasonis, 12 h, 2 µM
Description: The drug is tested on Parabacteroides distasonis strain: ATCC8503 for biotransformation. The drug concentrations were measured before and after a 12-h incubation by liquid-chromatography-coupled mass spectrometry (LC–MS)

[3] = The drug is tested on Clostridium symbiosum strain: ATCC14940 for biotransformation. The drug concentrations were measured before and after a 12-h incubation by liquid-chromatography-coupled mass spectrometry (LC–MS); conditions: 2 µM
[4] = The drug is tested on Bifidobacterium longum subsp. Infantis strain: CCUG52486 for biotransformation. The drug concentrations were measured before and after a 12-h incubation by liquid-chromatography-coupled mass spectrometry (LC–MS); conditions: 2 µM
[5] = The drug is tested on Clostridium ramosum strain: DSM1402 for biotransformation. The drug concentrations were measured before and after a 12-h incubation by liquid-chromatography-coupled mass spectrometry (LC–MS); conditions: thomasclavelia ramosa, 2 µM
[6] = The drug is tested on Clostridium scindens strain: ATCC35704 for biotransformation. The drug concentrations were measured before and after a 12-h incubation by liquid-chromatography-coupled mass spectrometry (LC–MS); conditions: 2 µM
[7] = parabacteroides johnsonii, 12 h, 2 µM
Description: The drug is tested on Parabacteroides johnsonii strain: DSM18315 for biotransformation. The drug concentrations were measured before and after a 12-h incubation by liquid-chromatography-coupled mass spectrometry (LC–MS)

[8] = The drug is tested on Bacteroides pectinophilus strain: ATCC43243 for biotransformation. The drug concentrations were measured before and after a 12-h incubation by liquid-chromatography-coupled mass spectrometry (LC–MS); conditions: 2 µM
[9] = The drug is tested on Ruminococcus torques strain: ATCC27756 for biotransformation. The drug concentrations were measured before and after a 12-h incubation by liquid-chromatography-coupled mass spectrometry (LC–MS); assay type: ADME; parameters: dose 2 uM, timepoint 0 vs 12 hours; conditions: 2 µM
[10] = The drug is tested on Blautia hansenii strain: DSM20583 for biotransformation. The drug concentrations were measured before and after a 12-h incubation by liquid-chromatography-coupled mass spectrometry (LC–MS); conditions: 2 µM
[11] = The drug is tested on Collinsella aerofaciens strain: ATCC25986 for biotransformation. The drug concentrations were measured before and after a 12-h incubation by liquid-chromatography-coupled mass spectrometry (LC–MS); conditions: 2 µM
[12] = The drug is tested on Enterobacter cancerogenus strain: ATCC35316 for biotransformation. The drug concentrations were measured before and after a 12-h incubation by liquid-chromatography-coupled mass spectrometry (LC–MS); conditions: 2 µM
[13] = bacteroides thetaiotaomicron, 12 h, 2 µM
Description: The drug is tested on Bacteroides thetaiotaomicron strain: VPI-5482 for biotransformation. The drug concentrations were measured before and after a 12-h incubation by liquid-chromatography-coupled mass spectrometry (LC–MS)

[14] = bifidobacterium adolescentis, 12 h, 2 µM
Description: The drug is tested on Bifidobacterium adolescentis strain: ATCC 15703 for biotransformation. The drug concentrations were measured before and after a 12-h incubation by liquid-chromatography-coupled mass spectrometry (LC–MS)

[15] = The drug is tested on Providencia rettgeri strain: DSM1131 for biotransformation. The drug concentrations were measured before and after a 12-h incubation by liquid-chromatography-coupled mass spectrometry (LC–MS); assay type: ADME; parameters: dose 2 uM, timepoint 0 vs 12 hours; conditions: 2 µM
[16] = enterocloster bolteae, 12 h, 2 µM
Description: The drug is tested on Clostridium bolteae strain: ATCCBAA-613 for biotransformation. The drug concentrations were measured before and after a 12-h incubation by liquid-chromatography-coupled mass spectrometry (LC–MS)

[17] = The drug is tested on Eubacterium hallii strain: DSM3353 for biotransformation. The drug concentrations were measured before and after a 12-h incubation by liquid-chromatography-coupled mass spectrometry (LC–MS); conditions: anaerobutyricum hallii, 2 µM
[18] = The drug is tested on Bacteroides sp. WH2 strain: WH2 for biotransformation. The drug concentrations were measured before and after a 12-h incubation by liquid-chromatography-coupled mass spectrometry (LC–MS); conditions: bacteroides sp. wh2, 12 h, 2 µM
[19] = The drug is tested on Escherichia coli strain: BW25113 for biotransformation. The drug concentrations were measured before and after a 12-h incubation by liquid-chromatography-coupled mass spectrometry (LC–MS); conditions: 2 µM
[20] = The drug is tested on Providencia stuartii strain: ATCC25827 for biotransformation. The drug concentrations were measured before and after a 12-h incubation by liquid-chromatography-coupled mass spectrometry (LC–MS); conditions: 2 µM

| Structure (SMILES) | Bacterial Biotransformation [1] | Bacterial Biotransformation [2] | Bacterial Biotransformation [3] | Bacterial Biotransformation [4] | Bacterial Biotransformation [5] | Bacterial Biotransformation [6] | Bacterial Biotransformation [7] | Bacterial Biotransformation [8] | Bacterial Biotransformation [9] | Bacterial Biotransformation [10] | Bacterial Biotransformation [11] | Bacterial Biotransformation [12] | Bacterial Biotransformation [13] | Bacterial Biotransformation [14] | Bacterial Biotransformation [15] | Bacterial Biotransformation [16] | Bacterial Biotransformation [17] | Bacterial Biotransformation [18] | Bacterial Biotransformation [19] | Bacterial Biotransformation [20] |
| --- | --- | --- | --- | --- | --- | --- | --- | --- | --- | --- | --- | --- | --- | --- | --- | --- | --- | --- | --- | --- |
| CC(C)C[C@H]1C(=O)N2CCC[C@H]2[C@]2(O)O[C@](NC(=O)[C@@H]3C=C4c5cccc6[nH]c(Br)c(c56)C[C@H]4N(C)C3)(C(C)C)C(=O)N12.CS(=O)(=O)O [BROMOCRIPTINE MESYLATE] | Compound metabolized | Compound metabolized | Compound metabolized | Compound metabolized | Compound metabolized | Compound metabolized | Compound metabolized | Compound metabolized | Compound metabolized | Compound metabolized | Compound metabolized | Compound metabolized | Compound metabolized | Compound metabolized | Compound metabolized | Compound metabolized | Compound metabolized | Compound metabolized | Compound metabolized | Compound metabolized |
| CCN(CC)CCOCCOC(=O)C1(c2ccccc2)CCCC1.O=C(O)CC(O)(CC(=O)O)C(=O)O [CARBETAPENTANE CITRATE] | Compound metabolized | Compound metabolized | Compound metabolized | Compound metabolized | Compound metabolized | Compound metabolized | Compound metabolized | Compound metabolized | Compound metabolized | Compound metabolized | Compound metabolized | Compound metabolized | Compound metabolized | Compound metabolized | Compound metabolized | Compound metabolized | Compound metabolized | Compound metabolized | Compound metabolized | Compound metabolized |
| CC(C)(C)NCC(O)c1cc(Cl)c(N)c(Cl)c1 (stereo not given) [CLENBUTEROL] | Compound NOT metabolized | Compound NOT metabolized | Compound NOT metabolized | Compound NOT metabolized | Compound NOT metabolized | Compound NOT metabolized | Compound NOT metabolized | Compound NOT metabolized | Compound NOT metabolized | Compound NOT metabolized | Compound NOT metabolized | Compound NOT metabolized | Compound NOT metabolized | Compound NOT metabolized | Compound NOT metabolized | Compound NOT metabolized | Compound NOT metabolized | Compound NOT metabolized | Compound NOT metabolized | Compound NOT metabolized |
| C#C[C@]1(O)CC[C@H]2[C@@H]3CCC4=Cc5oncc5C[C@]4(C)[C@H]3CC[C@@]21C [DANAZOL] | Compound metabolized | Compound metabolized | Compound metabolized | Compound metabolized | Compound metabolized | Compound metabolized | Compound metabolized | Compound metabolized | Compound metabolized | Compound metabolized | Compound metabolized | Compound metabolized | Compound metabolized | Compound metabolized | Compound metabolized | Compound metabolized | Compound metabolized | Compound metabolized | Compound metabolized | Compound metabolized |
| CC(=O)OCC(=O)[C@@]12N=C(C)O[C@@H]1C[C@H]1[C@@H]3CCC4=CC(=O)C=C[C@]4(C)[C@H]3[C@@H](O)C[C@@]12C [DEFLAZACORT] | Compound metabolized | Compound metabolized | Compound metabolized | Compound metabolized | Compound metabolized | Compound metabolized | Compound metabolized | Compound metabolized | Compound metabolized | Compound metabolized | Compound metabolized | Compound metabolized | Compound metabolized | Compound metabolized | Compound metabolized | Compound metabolized | Compound metabolized | Compound metabolized | Compound metabolized | Compound metabolized |

The next lines start with the values.

| Bacterial Biotransformation [1] | Bacterial Biotransformation [2] | Bacterial Biotransformation [3] | Bacterial Biotransformation [4] | Bacterial Biotransformation [5] | Bacterial Biotransformation [6] | Bacterial Biotransformation [7] | Bacterial Biotransformation [8] | Bacterial Biotransformation [9] | Bacterial Biotransformation [10] | Bacterial Biotransformation [11] | Bacterial Biotransformation [12] | Bacterial Biotransformation [13] | Bacterial Biotransformation [14] | Bacterial Biotransformation [15] | Bacterial Biotransformation [16] | Bacterial Biotransformation [17] | Bacterial Biotransformation [18] | Bacterial Biotransformation [19] | Bacterial Biotransformation [20] | Structure (SMILES) |
| --- | --- | --- | --- | --- | --- | --- | --- | --- | --- | --- | --- | --- | --- | --- | --- | --- | --- | --- | --- | --- |
| Compound metabolized | Compound metabolized | Compound metabolized | Compound metabolized | Compound metabolized | Compound metabolized | Compound metabolized | Compound metabolized | Compound metabolized | Compound metabolized | Compound metabolized | Compound metabolized | Compound metabolized | Compound metabolized | Compound metabolized | Compound metabolized | Compound metabolized | Compound metabolized | Compound metabolized | Compound metabolized | CC(=O)Oc1ccc(C(c2ccc(OC(C)=O)cc2)c2ccccn2)cc1 [BISACODYL] |
| Compound NOT metabolized | Compound metabolized | Compound NOT metabolized | Compound NOT metabolized | Compound metabolized | Compound NOT metabolized | Compound metabolized | Compound NOT metabolized | Compound NOT metabolized | Compound metabolized | Compound metabolized | Compound metabolized | Compound metabolized | Compound NOT metabolized | Compound NOT metabolized | Compound NOT metabolized | Compound metabolized | Compound metabolized | Compound metabolized | Compound metabolized | COc1ccccc1OCCNCC(O)COc1cccc2[nH]c3ccccc3c12 (stereo not given) [CARVEDILOL] |
